Columns and labels:
WI38 cells [1] = test: Western blot of lipogenic and myogenic marker proteins in WI38 cells (nicotine with or without lipogenic pathway agonists); assay type: cell-based, human; settings: PTHrP 5×10^−7 M, DBcAMP 1×10^−4 M, RGZ 1×10^−5 M
Experimental: (§1) The human embryonic cell line WI38 was obtained from American Type Culture Collection (Rockville, Md.). Cells were grown in MEM plus 10% FBS at 37° C. in six-well plates, four-well slides, and 60- and 100-mm culture dishes as needed.
Western blotting was performed with modifications of methods described previously (Ayad and Wong (1998) Crit. Care Med 26: 1277-1282). […] Equal amounts of the protein (25 μg) from the supernatant were dissolved in electrophoresis sample buffer and were subjected to SDS-PAGE (4-12% gradient) followed by electrophoretic transfer to a nitrocellulose membrane. Nonspecific binding of antibody was blocked by washing with Tris-buffered saline (TBS) containing 5% milk for 1 h. The blot was then subjected to two brief washes with TBS plus 0.5% Tween 20, incubated in TBS plus 0.1% Tween 20 and the specific primary antibodies (PPAR 1:2,000, Alexis Biochemicals, San Diego, Calif.; -SMA 1:50,000, Sigma; ADRP 1:3,000, a kind gift from Dr. Constantine Londos, National Institute of Diabetes and Digestive and Kidney Diseases) overnight at 4° C. Blots were then washed in TBS plus 0.1% Tween 20 and then incubated for 1 h in secondary antibody, washed, and developed with a chemiluminescent substrate (ECL; Amersham, Arlington Heights, Ill.) following the manufacturer's protocol.

WI38 cells [2] = test: Triglyceride uptake assay ([3H]triolein) in WI38 cells; assay type: cell-based, human; settings: concomitant treatment; RGZ 1×10^−5 M, PTHrP 5×10^−7 M, DBcAMP 1×10^−4 M; nicotine 1×10^−9 M, 7 days
Experimental: as §1
The method used to quantitate triglyceride uptake by fetal rat lung fibroblasts has been described previously (Torday et al. (1995) Biochim Biophys Acta 1254: 198-206). Briefly, culture medium was replaced with DMEM containing 20% adult rat serum mixed with [3H]triolein (5 μCi/ml). The cells were incubated at 37° C. in 5% CO2+balance air for 4 h. At the termination of the incubation, the medium was decanted, the cells were rinsed twice with 1 ml of ice-cold MEM, and the cells were removed from the culture plate after a 5- to 10-min incubation with 2 ml of a 0.05% trypsin solution. An aliquot of the cell suspension was taken for protein assay (Bradford (1976) Anal Biochem 72: 248-254), and the remaining cell suspension was extracted for neutral lipid content.

WI38 cells [3] = test: Reversal experiment, immunofluorescence double staining (ADRP or lipid droplets and αSMA) in WI38 cells; assay type: cell-based, human; settings: RGZ 1×10^−5 M, DBcAMP 1×10^−5 M, 7 days after nicotine
Experimental: Cells were grown in minimum essential medium (MEM) +10% fetal bovine serum at 37° C. in six-well plates, two well slides, and 60-mm and 100-mm culture dishes, as needed. […] Subsequently, the cells were treated with rosiglitazone (RGZ) (1×10^−5 M) (a PPARγ agonist), PTHrP (5×10^−7 M), or DBcAMP (1×10^−5 M) for 7 days, and the expression of PTHrP receptor, PPARγ, ADRP, calponin, and cSMA was determined by Western analysis and immunohistochemistry. Simultaneously, fibroblast function was characterized by measuring their capacity to take up triglycerides. Some experiments were performed in the presence of a specific PPARγ antagonist, GW9662. Medium containing fresh chemicals was added daily, and at the end of the experimental period the cells were processed as needed.
The lipogenic and myogenic status of cultured WI38 cells was assessed by simultaneous staining for either lipid droplets or ADRP and αSMA. Lipids were detected by using either oil red 0 staining or ADRP expression (polyclonal anti-ADRP 1:500), and αSMA expression was assessed by using anti-αSMA (1:1000, mouse monoclonal IgG2a, Sigma, catalog No. A2547) primary antibody. […] At the end of the experimental period, slides were fixed in freshly prepared 4% paraformaldehyde. […] Slides were rinsed three times for 5 min and then mounted and visualized under a fluorescence microscope.

WI38 cells [4] = test: Reversal experiment, triglyceride (triolein) uptake by WI38 cells; assay type: cell-based, human; settings: RGZ 10^−5 M, PTHrP 5×10^−7 M, DBcAMP 1×10^−5 M for 7 days after nicotine
WI38 cells [5] = test: Reversal of nicotine-induced LIF-to-MYF transdifferentiation in WI38 cells, Western analysis; settings: for reversal of nicotine-induced decrease in PTHrP receptor expression: 7 days agonist after 7 days nicotine 10^−9 M (Example 3); for reversal of nicotine-induced decrease in PPARγ expression / reversal of nicotine-induced increase in αSMA expression: 7 days agonist after 7 days nicotine (Example 3); for reversal of nicotine-induced changes in expression of PTHrP receptor, PPARγ, ADRP, αSMA and calponin: RGZ 1×10^−5 M, PTHrP 5×10^−7 M, DBcAMP 1×10^−5 M for 7 days after 7 days nicotine
Experimental: The human embryonic cell line WI38 was obtained from the American Type Culture Collection (Rockville, Md.). Cells were grown in minimum essential medium (MEM) +10% fetal bovine serum at 37° C. in six-well plates, two well slides, and 60-mm and 100-mm culture dishes, as needed. […] Subsequently, the cells were treated with rosiglitazone (RGZ) (1×10^−5 M) (a PPARγ agonist), PTHrP (5×10^−7 M), or DBcAMP (1×10^−5 M) for 7 days, and the expression of PTHrP receptor, PPARγ, ADRP, calponin, and cSMA was determined by Western analysis and immunohistochemistry. Simultaneously, fibroblast function was characterized by measuring their capacity to take up triglycerides. Some experiments were performed in the presence of a specific PPARγ antagonist, GW9662. Medium containing fresh chemicals was added daily, and at the end of the experimental period the cells were processed as needed.
For Western blotting, cells were lysed using an extraction buffer [10 mM tris (hydroxymethyl) aminomethane (Tris, pH 7.5), 0.25 M sucrose, 1 mM EDTA, 5 mM benzamidine, 2 mM phenylmethylsulfonyl fluoride, and 10 (j.tg/ml each of pepstatin A, aprotinin, and leupeptin], and centrifuged at 140 g for 10 min (4° C.). Equal amounts of the protein (25 μg) from the supernatant were dissolved in electrophoresis sample buffer and were subjected to sodium dodecyl sulfate-polyacrylamide (4%-12% gradient) gel electrophoresis (SDS-PAGE) followed by electrophoretic transfer to a nitrocellulose memane. The nonspecific binding of antibody was blocked by washing with Tris-buffered saline (TBS) containing 0.1% Tween 20 (TBST) and 5% milk for 1 h. The blot was then subjected to two brief washes with TBST plus 0.5% Tween 20, incubated in TBST plus 0.1% Tween 20 and the specific primary antibodies (PPARγ 1:2000, Alexis Biochemicals, San Diego, Calif.; cSMA 1:50,000, Sigma, St. Louis, Mo.: ADRP 1:3000) overnight at 4° C. Blots were then washed in TBST plus 0.1% Tween 20 and then incubated for 1 h in secondary antibody, washed, and developed with a chemiluminescent substrate [enhanced chemiluminescence (ECL); Amersham, Arlington Heights, Ill.] following the manufacturer's protocol. The densities of the specific protein bands were quantified using a scanning densitometer (Eagle Eye II still video system, Stratagene, La Jolla, Calif.).

Compound | prevention of nicotine-induced decreases in PTHrP receptor and PPAR and increase in α-SMA protein expression (WI38 cells [1]) | prevention of nicotine-induced decrease in triglyceride uptake (WI38 cells [2]) | reversal of nicotine-induced decreases in ADRP and lipid droplet staining and increase in αSMA staining (WI38 cells [3]) | block of nicotine-induced decrease in triolein uptake (WI38 cells [4]) | reversal of nicotine-induced decrease in PTHrP receptor expression (WI38 cells [5]) | reversal of nicotine-induced decrease in PPARγ expression (WI38 cells [5]) | reversal of nicotine-induced increase in αSMA expression (WI38 cells [5]) | reversal of nicotine-induced changes in expression of PTHrP receptor, PPARγ, ADRP, αSMA and calponin (WI38 cells [5])
CCCC(=O)Nc1ncnc2c1ncn2[C@@H]1O[C@@H]2COP(=O)(O)O[C@H]2[C@H]1OC(=O)CCC [DBcAMP, dibutyryl cAMP] | completely prevented | effectively prevented | reversed | at least partially blocked | reversed | did not reach statistical significance | reversed | almost completely reversed
PTHrP-(1-34) | completely prevented | effectively prevented | – | at least partially blocked | reversed | reversed | reversed | almost completely reversed

From patent publication US9173875B2, “Treatment for nicotine-induced lung disease using peroxisome proliferator-activated receptor gamma agonists” (Los Angeles Biomedical Research Institute at Harbor-UCLA …, priority 2006, dated 2015)
